Data set [1] concerns tumor cells. The experiment in a line: Hoechst 33342 nuclear staining (48 h read-out). The data set is classed as cell-based. The method in brief:
(§1)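 Adherent cells pre-spread 24 h before dosing, suspension cells dosed at seeding; compounds at 0.001 μM-10 μM final, 48 h at culture conditions. Hoechst 33342 (2-5 μg/ml) added for 30 min, then fluorescence microscopy scoring of apoptotic nuclear fraction and apoptosis-specific morphology, reported as scores A-D.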

Data set [2] can be described thus: Hoechst 33342 nuclear staining (48 h read-out). It is filed as cell-based. The method in brief: as §1
The test system of the next data set is HeLa. Description: Colony Forming Units (read-out 6 days), HeLa. It is filed as cell-based, human. The following applies: Homo sapiens, 144 h, colonies containing more than 30 cells, read-out: Colony Forming Units, score based on IC50, HeLa. The method in brief:
(§2)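 Cells seeded at 100-150 per well and left to attach for 48 h before compound addition (0.001 μM-3 μM; DMSO controls). Incubated 5-7 days under culture conditions; colonies of more than 30 cells counted by microscope.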

The test system of data set [3] is tumor cells. Description: MTS proliferation assay (72 h read-out). The data set is classed as cell-based. The method in brief:
(§3)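 Tumour cells (1.5×10^3–10^4 per well) were seeded 24 h before compound addition, then exposed to 0.001–10 μM final compound for 72 h under culture conditions. MTS reagent was added for a further 3 h, absorbance was read at 492 nm, and results were binned into scores A–D.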
For orientation: Tetrazolium dyes change colour on reduction, which living cells bring about.

A short description of data set [4]: MTS proliferation assay (72 h read-out). The settings on record: Homo sapiens, MRC5 cells. The data set is classed as cell-based. The method in brief: as §3
The test system of another data set is H460. The experiment in a line: Colony Forming Units (read-out 6 days), H460. It is filed as cell-based, human. The following applies: Homo sapiens, NCI-H460, 144 h, colonies containing more than 30 cells, read-out: Colony Forming Units, score based on IC50, H460. The method in brief: as §2
Data set [5] has as its system tumor cells. Description: Mitochondrial membrane potential, JC-1 (read-out 48 h). It is filed as cell-based. The following applies: JC-1, 48 h. The method in brief:
(§4)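 Tumor cells were treated with test compounds (adherent cells after 24 h of attachment, suspension cells immediately), medium holding up to 5% DMSO. After 48 h, JC-1 (2-5 μg/ml in added medium) was applied for 30 min. Fluorescence microscopy (FITC/TRITC filters) scored the fraction of cells with dissipated mitochondrial membrane potential as categories A-D.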

Assay in data set [6]: as above
The data set is classed as cell-based. The settings on record: PBL, JC-1, 48 h. The method in brief: as §4

Where [7] appears, read: Homo sapiens, HeLa cells, read-out: Hoechst 33342 nuclear staining EC50, HeLa.
[8] abbreviates: Homo sapiens, Jurkat cells, read-out: Hoechst 33342 nuclear staining EC50, Jurkat.
[9] abbreviates: Jily cells, read-out: Hoechst 33342 nuclear staining EC50, Jily.
The mark [10] stands for this setting: Homo sapiens, MRC5 cells, read-out: Hoechst 33342 nuclear staining EC50, MRC5.
[11] abbreviates: Homo sapiens, HT-1080, HT1080 cells, read-out: MTS proliferation assay IC50, HT1080.
[12] abbreviates: Homo sapiens, HeLa cells, read-out: MTS proliferation assay IC50, HeLa.
Setting [13] is: Homo sapiens, Jurkat cells, read-out: MTS proliferation assay IC50, Jurkat.
[14] abbreviates: Jily cells, read-out: MTS proliferation assay IC50, Jily.
Setting [15] is: Homo sapiens, HeLa cells, read-out: Mitochondrial membrane potential (read-out 48 h) HeLa.
The mark [16] stands for this setting: Homo sapiens, Jurkat cells, read-out: Mitochondrial membrane potential (read-out 48 h) Jurkat.
The mark [17] stands for this setting: Homo sapiens, MCF7 cells, read-out: Mitochondrial membrane potential (read-out 48 h) MCF7.
Where [18] appears, read: Jily cells, read-out: Mitochondrial membrane potential (read-out 48 h) Jily.
[19] abbreviates: PBL, read-out: Hoechst 33342 nuclear staining EC50, PBL.

Molecules are shown by their SMILES. Read-outs that look alike come from different tables or passages of the source.

In general, melting point refers to the temperature, or range, at which the solid turns liquid.

For `CCCOc1ccc(OC)cc1C(=O)c1oc2ccc(Cl)cc2c1N` [Example 14], the melting point fell in the range of 95 to 97 °C. For the same molecule, the EC50 with tumor cells [1] (setting [7]) lay within 10 to 100 nM. The EC50 in the data set on tumor cells [1] (setting [8]) was 10 to 100 nM. Also, the EC50 in the data set on tumor cells [1] (setting [9]) was in the range of 10 to 100 nM. Moreover, the EC50 in data set [2] (setting [10]) fell in the range of 10 to 100 nM. Besides, in the data set with HeLa, the IC50 is 10 to 100 nM. For the same molecule, the IC50 in the data set with tumor cells [3] (setting [11]) was in the range of 10 to 100 nM. Further, the IC50 in the data set on tumor cells [3] (setting [12]) is 10 to 100 nM. In addition, the IC50 in the data set with tumor cells [3] (setting [13]) is less than 10 nM. Further, in the data set with tumor cells [3] (setting [14]), the IC50 is less than 10 nM. Also, the IC50 in data set [4] was in the range of 10 to 100 nM. The IC50 with H460 was 10 to 100 nM. Also, the EC50 in the data set with tumor cells [5] (setting [15]) fell in the range of 10 to 100 nM. For the same molecule, the EC50 in the data set on tumor cells [5] (setting [16]) is 10 to 100 nM. Moreover, in the data set with tumor cells [5] (setting [17]), the EC50 lay within 10 to 100 nM. Besides, in the data set with tumor cells [5] (setting [18]), the EC50 is 10 to 100 nM. Also, in data set [6], the EC50 is greater than 1000 nM.
`CCOc1ccc(C)cc1C(=O)COc1ccc(Cl)cc1C#N` [Example 144] displayed a melting point of 144 to 146 °C. Further, the EC50 in the data set on tumor cells [1] (setting [7]) lay within 100 to 1000 nM. For the same molecule, the EC50 in the data set with tumor cells [1] (setting [8]) lay in the range of 10 to 100 nM. Further, the EC50 in the data set on tumor cells [1] (setting [9]) was 10 to 100 nM. The EC50 in [2] (setting [10]) lay in the range of 100 to 1000 nM. The EC50 in [2] (setting [19]) was greater than 1000 nM. The IC50 in the data set with tumor cells [3] (setting [11]) was in the range of 100 to 1000 nM. For the same molecule, in the data set with tumor cells [3] (setting [12]), the IC50 was in the range of 100 to 1000 nM. In the data set on tumor cells [3] (setting [13]), the IC50 fell in the range of 10 to 100 nM. Moreover, the IC50 in the data set on tumor cells [3] (setting [14]) fell in the range of 10 to 100 nM. Moreover, in [4], the IC50 is 100 to 1000 nM. Also, the EC50 in the data set on tumor cells [5] (setting [15]) was in the range of 100 to 1000 nM. Further, the EC50 with tumor cells [5] (setting [16]) was in the range of 10 to 100 nM. For the same molecule, the EC50 in the data set on tumor cells [5] (setting [17]) fell in the range of 100 to 1000 nM. Moreover, the EC50 in data set [6] was greater than 1000 nM.
`CCOc1ccc(NC(C)=O)cc1C(=O)c1oc2ccc(Cl)cc2c1N` [Example 21] had a melting point of 110 to 112 °C. Also, in the data set with tumor cells [1] (setting [7]), the EC50 was greater than 1000 nM. Also, in the data set with tumor cells [1] (setting [8]), the EC50 was greater than 1000 nM. Moreover, the EC50 in the data set on tumor cells [1] (setting [9]) was greater than 1000 nM. The EC50 in data set [2] (setting [10]) is greater than 1000 nM. The EC50 in data set [2] (setting [19]) is greater than 1000 nM. Besides, the IC50 in the data set on tumor cells [3] (setting [11]) was greater than 1000 nM. For the same molecule, in the data set with tumor cells [3] (setting [12]), the IC50 is greater than 1000 nM. Besides, in the data set with tumor cells [3] (setting [13]), the IC50 is greater than 1000 nM. The IC50 in the data set on tumor cells [3] (setting [14]) was greater than 1000 nM. In addition, the IC50 in data set [4] is greater than 1000 nM. The EC50 in the data set with tumor cells [5] (setting [15]) is greater than 1000 nM. Moreover, the EC50 in the data set with tumor cells [5] (setting [16]) was greater than 1000 nM. Besides, the EC50 in the data set on tumor cells [5] (setting [17]) is greater than 1000 nM. Moreover, in the data set on tumor cells [5] (setting [18]), the EC50 is greater than 1000 nM. In [6], the EC50 was greater than 1000 nM.
`CCOc1c(OC)cccc1C(=O)c1oc2ccc(Cl)cc2c1N` [Example 24]: the melting point is 121 to 124 °C. Also, the EC50 in the data set on tumor cells [1] (setting [7]) was greater than 1000 nM. For the same molecule, the EC50 with tumor cells [1] (setting [8]) is greater than 1000 nM. Moreover, the EC50 in the data set with tumor cells [1] (setting [9]) was greater than 1000 nM. In addition, the EC50 in data set [2] (setting [10]) is greater than 1000 nM. Besides, the EC50 in data set [2] (setting [19]) was greater than 1000 nM. For the same molecule, the IC50 in the data set on tumor cells [3] (setting [11]) is greater than 1000 nM. For the same molecule, the IC50 in the data set on tumor cells [3] (setting [12]) is greater than 1000 nM. For the same molecule, the IC50 in the data set with tumor cells [3] (setting [13]) is greater than 1000 nM. Further, in the data set on tumor cells [3] (setting [14]), the IC50 is greater than 1000 nM. Also, the IC50 in data set [4] is greater than 1000 nM. In addition, the EC50 in the data set on tumor cells [5] (setting [15]) was greater than 1000 nM. Moreover, in the data set on tumor cells [5] (setting [16]), the EC50 is greater than 1000 nM. Moreover, the EC50 with tumor cells [5] (setting [17]) was greater than 1000 nM. Besides, the EC50 in the data set with tumor cells [5] (setting [18]) is greater than 1000 nM. Also, the EC50 in data set [6] is greater than 1000 nM.
`CCOc1ccc(Cl)cc1C(=O)c1oc2nc(C)ccc2c1N` [Example 27] displayed a melting point of 174 to 176 °C. Further, in the data set with tumor cells [1] (setting [7]), the EC50 was 10 to 100 nM. Also, the EC50 with tumor cells [1] (setting [8]) is less than 10 nM. For the same molecule, the EC50 in the data set on tumor cells [1] (setting [9]) fell in the range of 10 to 100 nM. For the same molecule, in [2] (setting [10]), the EC50 was greater than 1000 nM. Also, the EC50 in [2] (setting [19]) was greater than 1000 nM. Moreover, the IC50 in the data set with tumor cells [3] (setting [11]) lay within 10 to 100 nM. Moreover, the IC50 in the data set on tumor cells [3] (setting [12]) was 10 to 100 nM. The IC50 in the data set with tumor cells [3] (setting [13]) fell in the range of 10 to 100 nM. In addition, the IC50 in the data set on tumor cells [3] (setting [14]) was in the range of 10 to 100 nM. Also, the IC50 in [4] lay within 10 to 100 nM. Besides, the EC50 in the data set on tumor cells [5] (setting [15]) lay in the range of 10 to 100 nM. Besides, the EC50 in the data set on tumor cells [5] (setting [16]) was 10 to 100 nM. For the same molecule, the EC50 in the data set on tumor cells [5] (setting [17]) was 100 to 1000 nM. The EC50 in the data set with tumor cells [5] (setting [18]) fell in the range of 10 to 100 nM. The EC50 in [6] is greater than 1000 nM.

These data come from patent US8486996B2, “Aroylfuranes and aroylthiophenes” (Basilea Pharmaceutica AG, priority 2006, dated 2013).
